Where two headings read alike, the source gives them in different places.
Assay: Ocular tissue concentrations (aqueous humor, vitreous humor, iris, retina, choroid, cornea) after topical ocular, subcutaneous and intravitreal administration
Assay type: in vivo, New Zealand White rabbits
Details: for Cornea Conc. (ng/mL) OS: Cornea homogenate; for Cornea Conc. (ng/mL) OS / concentration at 0.5 h / concentration at 1 h / concentration at 2 h / concentration at 4 h: subcutaneous 5 mg/kg/dose; for concentration at 6 hr / concentration at 24 hr / concentration at 48 hr / concentration at 72 hr / concentration at 0.5 h / concentration at 1 h / concentration at 2 h / concentration at 4 h: New Zealand White, rabbit; for concentration at 6 hr / concentration at 24 hr / concentration at 48 hr / concentration at 72 hr: other: intravitreal, 2.5 mg/eye; for concentration at 0.5 h / concentration at 1 h / concentration at 2 h / concentration at 4 h: subcutaneous, 5 mg/kg/dose
Description: To measure the concentration of Compound 1 in plasma and ocular tissues following topical ocular, subcutaneous, and intravitreal administration, New Zealand White rabbits were administered Compound 1, and plasma and ocular samples were collected at pre-determined time points. Compound 1 formulations were prepared fresh on each day of dosing.
Ocular tissue samples from both eyes of each animal were collected and weights were recorded. Plasma and ocular tissue sample concentrations of Compound 1 were determined by LC-MS/MS.
New Zealand White rabbits weighing 2.5 to 3.5 kg were used on this study. Rabbits were housed one per cage. Animals were not fasted and only healthy animals with no ocular illness were used. Two rabbits per group were sacrificed at each of four ocular tissue sampling time points for a total of eight rabbits per group.
Animals were anesthetized for ocular (topical) and intravitreal dosing following the 12IA7 IACUC protocol. Each rabbit received a bolus dose of test formulation either via topical ocular administration 3 times daily on Days 1 and 2 (at 0, 6, and 12 hours), and once on Day 3 (at 0 hours) into both eyes; via intravitreal administration into both eyes once on Day 1 (at 0 hours); or via subcutaneous administration 2 times daily on Days 1 and 2 (at 0 and 8 hours) and once daily on Day 3 (at 0 hours). Doses were given within an approximately 1 hour window each day where applicable.
On Day 1, for intravitreal administration, or on Day 3, for topical ocular and subcutaneous administration, at the appropriate ocular tissue collection time points, animals were euthanized and both eyes were enucleated immediately. Following enucleation, each eye was rinsed with phosphate-buffered saline. Ocular tissue samples from both eyes of each animal were collected at predetermined time points and weights were recorded. All the samples were frozen immediately on dry ice, and stored at −60° C. to −80° C. pending bioanalysis.
An LC-MS/MS method was developed for the determination of Compound 1 in rabbit aqueous tissues (plasma, aqueous and vitreous humor) and solid ocular tissue samples. A pre-study standard curve was analyzed to determine the specificity, range, and lower limit of quantitation of the method. Plasma and tissue homogenate study samples were extracted and analyzed. All the samples were treated identically to the standards.
One eight-point standard curve was used in each analytical batch. To be accepted, each batch must have had at least five of eight standards with accuracy within ±20% of nominal, except at the lower limit of quantification (LLOQ), where ±25% was acceptable.
Concentration versus time data is plotted in FIGS. 3-16. All data are expressed as ng/g of the free drug. Samples that were below the limit of quantitation (0.2 ng/mL) were not used in the calculation of averages.

[1] = choroid homogenate, Choroid homogenate, left eye, intravitreal 2.5 mg/eye (group 5), individual animals, read-out: Conc. (ng/mL) OS
[2] = choroid homogenate, Choroid homogenate, OD, sodium salt, intravitreal 2.5 mg/eye, Group 4, read-out: Choroid Conc. (ng/mL) OD
[3] = choroid homogenate, Choroid homogenate, OS, sodium salt, intravitreal 2.5 mg/eye, Group 4, read-out: Choroid Conc. (ng/mL) OS
[4] = choroid homogenate, Choroid homogenate, right eye, intravitreal 2.5 mg/eye (group 5), individual animals, read-out: Conc. (ng/mL) OD
[5] = choroid homogenate, Choroid homogenate, OD, sodium salt, Group 2, read-out: Choroid Conc. (ng/mL) OD
[6] = choroid homogenate, Choroid homogenate, OS, sodium salt, Group 2, read-out: Choroid Conc. (ng/mL) OS
[7] = choroid, Choroid, OD, sodium salt, intravitreal 2.5 mg/eye, Group 4, read-out: Choroid Conc. (ng/g) OD
[8] = choroid, Choroid, OS, sodium salt, intravitreal 2.5 mg/eye, Group 4, read-out: Choroid Conc. (ng/g) OS
[9] = choroid, Choroid, average, intravitreal 2.5 mg/eye (group 5), read-out: Avg.
[10] = choroid, Choroid, left eye, intravitreal 2.5 mg/eye (group 5), individual animals, read-out: Conc. (ng/g) OS
[11] = choroid, Choroid, sodium salt, intravitreal 2.5 mg/eye, Group 4, read-out: Choroid Avg.
[12] = choroid, Choroid, right eye, intravitreal 2.5 mg/eye (group 5), individual animals, read-out: Conc. (ng/g) OD
[13] = choroid, Choroid, OD, sodium salt, Group 2, read-out: Choroid Conc. (ng/g) OD
[14] = choroid, Choroid, OS, sodium salt, Group 2, read-out: Choroid Conc. (ng/g) OS
[15] = choroid, Choroid, free acid, Group 3, read-out: Choroid Average
[16] = choroid, Choroid, sodium salt, Group 2, read-out: Choroid Average

COC(=O)N[C@@H](Cc1ccccc1)C(=O)N[C@@H](Cc1ccc(NS(=O)(=O)O)cc1)c1csc(-c2cccs2)n1 [Compound 1]
Cornea Conc. (ng/mL) OS (1 hr, OS, free acid, Group 3): BLOQ (Below the limit of quantitation (0.5 ng/mL))
Cornea Conc. (ng/mL) OS (2 hr, OS, free acid, Group 3): BLOQ (Below the limit of quantitation (0.5 ng/mL))
concentration at 6 hr [1]: 63400 ng/mL
concentration at 24 hr [2]: 11800 ng/mL
concentration at 24 hr [3]: 9890 ng/mL
concentration at 24 hr [1]: 28400 ng/mL
concentration at 48 hr [2]: 3480 ng/mL
concentration at 48 hr [3]: 3740 ng/mL
concentration at 48 hr [1]: 9320 ng/mL
concentration at 48 hr [4]: 9940 ng/mL
concentration at 72 hr [3]: 282 ng/mL
concentration at 72 hr [1]: 2660 ng/mL
concentration at 72 hr [4]: 2180 ng/mL
concentration at 0.5 h [5]: 24 ng/mL
concentration at 0.5 h (choroid homogenate, Choroid homogenate, OS, free acid, Group 3, read-out: Choroid Conc. (ng/mL) OS): 7.55 ng/mL
concentration at 0.5 h [6]: 25.6 ng/mL
concentration at 1 h (choroid homogenate, Choroid homogenate, 1 hr, OD, free acid, Group 3, read-out: Choroid Conc. (ng/mL) OD): 6.04 ng/mL
concentration at 1 h (choroid homogenate, Choroid homogenate, 1 hr, OD, sodium salt, Group 2, read-out: Choroid Conc. (ng/mL) OD): 29.1 ng/mL
concentration at 1 h (choroid homogenate, Choroid homogenate, 1 hr, OS, free acid, Group 3, read-out: Choroid Conc. (ng/mL) OS): 8.01 ng/mL
concentration at 1 h (choroid homogenate, Choroid homogenate, 1 hr, OS, sodium salt, Group 2, read-out: Choroid Conc. (ng/mL) OS): 13.1 ng/mL
concentration at 2 h (choroid homogenate, Choroid homogenate, 2 hr, OD, free acid, Group 3, read-out: Choroid Conc. (ng/mL) OD): 3.32 ng/mL
concentration at 2 h (choroid homogenate, Choroid homogenate, 2 hr, OS, free acid, Group 3, read-out: Choroid Conc. (ng/mL) OS): 4.84 ng/mL
concentration at 4 h (choroid homogenate, Choroid homogenate, OD, free acid, Group 3, read-out: Choroid Conc. (ng/mL) OD): 4.82 ng/mL
concentration at 4 h [5]: 1.7 ng/mL
concentration at 4 h [6]: 1.22 ng/mL
concentration at 0.5 h (choroid homogenate, TABLE 16: Choroid homogenate, OS, free acid, Group 3, read-out: Choroid Conc. (ng/mL) OS): 7.55 ng/mL
concentration at 1 h (choroid homogenate, TABLE 16: Choroid homogenate, 1 hr, OD, free acid, Group 3, read-out: Choroid Conc. (ng/mL) OD): 6.04 ng/mL
concentration at 1 h (choroid homogenate, TABLE 16: Choroid homogenate, 1 hr, OS, free acid, Group 3, read-out: Choroid Conc. (ng/mL) OS): 8.01 ng/mL
concentration at 2 h (choroid homogenate, TABLE 16: Choroid homogenate, 2 hr, OD, free acid, Group 3, read-out: Choroid Conc. (ng/mL) OD): 3.32 ng/mL
concentration at 2 h (choroid homogenate, TABLE 16: Choroid homogenate, 2 hr, OS, free acid, Group 3, read-out: Choroid Conc. (ng/mL) OS): 4.84 ng/mL
concentration at 4 h (choroid homogenate, TABLE 16: Choroid homogenate, OD, free acid, Group 3, read-out: Choroid Conc. (ng/mL) OD): 4.82 ng/mL
concentration at 6 hr [7]: 346000 ng/g
concentration at 6 hr [8]: 484000 ng/g
concentration at 6 hr [9]: 664000 ng/g
concentration at 6 hr [10]: 697000 ng/g
concentration at 6 hr [11]: 947000 ng/g
concentration at 24 hr [7]: 130000 ng/g
concentration at 24 hr [8]: 109000 ng/g
concentration at 24 hr [9]: 398000 ng/g
concentration at 24 hr [10]: 312000 ng/g
concentration at 24 hr [11]: 139000 ng/g
concentration at 48 hr [7]: 38300 ng/g
concentration at 48 hr [8]: 41100 ng/g
concentration at 48 hr [9]: 120000 ng/g
concentration at 48 hr [10]: 103000 ng/g
concentration at 48 hr [12]: 109000 ng/g
concentration at 48 hr [11]: 38600 ng/g
concentration at 72 hr [8]: 3100 ng/g
concentration at 72 hr [9]: 27600 ng/g
concentration at 72 hr [10]: 29300 ng/g
concentration at 72 hr [12]: 24000 ng/g
concentration at 72 hr [11]: 2720 ng/g
concentration at 0.5 h [13]: 264 ng/g
concentration at 0.5 h (choroid, Choroid, OS, free acid, Group 3, read-out: Choroid Conc. (ng/g) OS): 83.1 ng/g
concentration at 0.5 h [14]: 282 ng/g
concentration at 0.5 h [15]: 127 ng/g
concentration at 0.5 h [16]: 266 ng/g
concentration at 1 h (choroid, Choroid, 1 hr, OD, free acid, Group 3, read-out: Choroid Conc. (ng/g) OD): 66.4 ng/g
concentration at 1 h (choroid, Choroid, 1 hr, OD, sodium salt, Group 2, read-out: Choroid Conc. (ng/g) OD): 320 ng/g
concentration at 1 h (choroid, Choroid, 1 hr, OS, free acid, Group 3, read-out: Choroid Conc. (ng/g) OS): 88.1 ng/g
concentration at 1 h (choroid, Choroid, 1 hr, OS, sodium salt, Group 2, read-out: Choroid Conc. (ng/g) OS): 144 ng/g
concentration at 1 h (choroid, Choroid, 1 hr, free acid, Group 3, read-out: Choroid Average): 83.3 ng/g
concentration at 1 h (choroid, Choroid, 1 hr, sodium salt, Group 2, read-out: Choroid Average): 200 ng/g
concentration at 2 h (choroid, Choroid, 2 hr, OD, free acid, Group 3, read-out: Choroid Conc. (ng/g) OD): 36.5 ng/g
concentration at 2 h (choroid, Choroid, 2 hr, OS, free acid, Group 3, read-out: Choroid Conc. (ng/g) OS): 53.2 ng/g
concentration at 2 h (choroid, Choroid, 2 hr, free acid, Group 3, read-out: Choroid Average): 47.7 ng/g
concentration at 2 h (choroid, Choroid, 2 hr, sodium salt, Group 2, read-out: Choroid Average): 68.8 ng/g
concentration at 4 h (choroid, Choroid, OD, free acid, Group 3, read-out: Choroid Conc. (ng/g) OD): 53 ng/g
concentration at 4 h [13]: 18.7 ng/g
concentration at 4 h [14]: 13.4 ng/g
concentration at 4 h [15]: 61 ng/g
concentration at 4 h [16]: 15.5 ng/g
concentration at 0.5 h (choroid, TABLE 16: Choroid, OS, free acid, Group 3, read-out: Choroid Conc. (ng/g) OS): 83.1 ng/g
concentration at 0.5 h (choroid, TABLE 16: Choroid, free acid, Group 3, read-out: Choroid Average): 127 ng/g
concentration at 1 h (choroid, TABLE 16: Choroid, 1 hr, OD, free acid, Group 3, read-out: Choroid Conc. (ng/g) OD): 66.4 ng/g
concentration at 1 h (choroid, TABLE 16: Choroid, 1 hr, OS, free acid, Group 3, read-out: Choroid Conc. (ng/g) OS): 88.1 ng/g
concentration at 1 h (choroid, TABLE 16: Choroid, 1 hr, free acid, Group 3, read-out: Choroid Average): 83.3 ng/g
concentration at 2 h (choroid, TABLE 16: Choroid, 2 hr, OD, free acid, Group 3, read-out: Choroid Conc. (ng/g) OD): 36.5 ng/g

Source: US11666558B2, “Methods of treating intraocular pressure with activators of Tie-2” (EyePoint Pharmaceuticals, Inc., priority 2015, dated 2023)
